IC50 data for 2 compounds are collected here from BindingDB's records for doi:10.1016/s0968-0896(98)00004-2 (Sankyo, 1998).

The target of the experiment is T1, Dimer of Gag-Pol polyprotein [489-587] (Human immunodeficiency virus 1, UniProt P12497).
T1 construct: 489-587
In words: Protease Inhibition Assay. The procedure:
The inhibitory activities of the compounds toward HIV-1 PR were determined by sodium dodecyl sulfate-polyacrylamide gel electrophoresis (SDS-PAGE) assay. The IC50 values of active compounds were determined using the partially purified protease and the synthetic substrate Ac-Ser-Gln-AsnTyr-Pro-Ile-Val-NH2.

For the compound `CC(C)(C)NC(=O)[C@@H]1C[C@H](Cl)CN1C(=O)[C@@H](O)[C@H](Cc1ccccc1)NC(=O)OC1CCCC1` [cyclopentyl N-[(2S,3S)-4-[(2S,4S)-2-(tert-butylcarbamoyl)-4-chloropyrrolidin-1-yl]-3-hydroxy-4-oxo-1-phenylbutan-2-yl]carbamate], the IC50 (as a rule, the point on the concentration scale where inhibition reaches its midpoint) was 19 nM. `CC(C)(C)NC(=O)[C@@H]1C[C@H](Cl)CN1C(=O)[C@@H](O)[C@H](Cc1ccccc1)NC(=O)OC1CCSC1` (stereo partly drawn) [thiolan-3-yl N-[(2S,3S)-4-[(2S,4S)-2-(tert-butylcarbamoyl)-4-chloropyrrolidin-1-yl]-3-hydroxy-4-oxo-1-phenylbutan-2-yl]carbamate] had a 50% inhibitory concentration (IC50) of 7.7 nM.
